Values after ≈ are worked out from the molar mass of the structure shown. Like-named read-outs stand apart in the source and are kept apart here.
What was measured:
[1] = test system: IgG fraction of the antiserum raised to immunogen A (hapten A-BSA); format: binding, sheep; conditions: for IC50, OP: concentration of test opiate that causes 50% displacement of signal, Table 3, Example 13 (a); for IC50: standard concentration which produces 50% B/B0
Description: Aqueous solutions of the immunogens prepared in Examples 7 and 8 were formulated with Freund's Complete Adjuvant (FCA) to form emulsions consisting of 4 mg/ml immunogen A and 2 mg/ml immunogen B in 50% (v/v) FCA. Three sheep were immunized with each emulsion (1° immunizations), 0.25 ml being subcutaneously injected at each of four sites in the flank of each animal. The next immunizations (first boosts) contained 2 mg/ml immunogen A and 1 mg/ml immunogen B. Subsequent immunizations (boosts […]) contained 1 mg/ml of each immunogen. All boosts were emulsified in 50% (v/v) Freund's Incomplete Adjuvant (FIA) and administered to the appropriate sheep in the same manner as the 1° immunizations, at monthly intervals for 1 year. Blood sampling took place 7 to 14 days after each boost. Each sample was processed to produce antiserum which was further purified by caprylic acid and ammonium sulfate precipitation to yield an immunoglobulin G (IgG) fraction. The IgG fraction was evaluated by competitive ELISA microtiter plate assay, as described in Example 12 below.
(a) The wells of an enhanced binding 96-well polystyrene microtiter plate were coated with the IgG fraction of the antiserum raised to immunogen A (hapten A-BSA) (Example 7), diluted in 10 mM Tris, pH8.5 (125 μl/well). The appropriate antibody coating dilution was determined using standard ELISA chequerboard techniques. The plate was incubated for 2 hours at 37° C., washed 4 times with Tris-buffered saline containing Tween 20 (TBST) and tapped dry. […] 75 μl of conjugate A (hapten A-HRP) (Example 10), diluted in Tris buffer containing EDTA, D-mannitol, sucrose, thimerosal and BSA, was added to each of the wells. The appropriate dilution of conjugate was also determined using standard ELISA chequerboard techniques. The plate was incubated at 37° C. for 2 hours. The excess unbound conjugate was removed by washing 6 times over a 10 minute period with TBST. 125 μl of tetramethylbenzedine (TMB) substrate solution was added to each well of the plate that was then incubated for 15 to 20 minutes in the dark at room temperature. The reaction was terminated by addition of 125 μl 0.2M H2SO4 to each well. The absorbance was then measured at 450 nm using a microtiter plate reader.

[2] = test system: IgG fraction of the antiserum raised to immunogen B (hapten B-BSA); format: binding, sheep; conditions: for IC50, OP: concentration of test opiate that causes 50% displacement of signal, Table 3, Example 13 (b); for IC50: standard concentration which produces 50% B/B0
[3] = percentage cross-reactivity based on specificity to oxycodone, Table 1
[4] = standard concentration 0.5 ng/ml
[5] = standard concentration 25 ng/ml
[6] = standard concentration 100 ng/ml
[7] = standard concentration 250 ng/ml
[8] = standard concentration 500 ng/ml
[9] = percentage cross-reactivity based on specificity to oxycodone, Table 2
[10] = standard concentration 10 ng/ml
[11] = standard concentration 50 ng/ml
[12] = standard concentration 1000 ng/ml
[13] = standard concentration 2000 ng/ml

Row | SMILES | % CR [1] | IC50, OP [1] | % CR [2] | IC50, OP [2] | % CR [1, 3] | % B/B0 [1, 4] | % B/B0 ([1]; standard concentration 1 ng/ml) | % B/B0 [1, 5] | % B/B0 [1, 6] | % B/B0 [1, 7] | % B/B0 [1, 8] | IC50 ([1]; Table 1) | % CR [2, 9] | % B/B0 [2, 10] | % B/B0 [2, 11] | % B/B0 [2, 6] | % B/B0 [2, 8] | % B/B0 [2, 12] | % B/B0 [2, 13] | further results
1 | COc1ccc2c3c1O[C@H]1[C@@H](O)C=C[C@H]4[C@@H](C2)N(C)CC[C@@]341 [Codeine] | 2.2% | 0.3867 µg/mL (≈ 1.29 µM) | <2.7% | >2 µg/mL |  |  |  |  |  |  |  |  |  |  |  |  |  |  |  | 
2 | COc1ccc2c3c1O[C@H]1[C@@H](O)CC[C@H]4[C@@H](C2)N(C)CC[C@@]341 [Dihydrocodone] | <1.7% | >0.5 µg/mL | <2.7% | >2 µg/mL |  |  |  |  |  |  |  |  |  |  |  |  |  |  |  | 
3 | COc1ccc2c3c1O[C@H]1C(=O)CC[C@H]4[C@@H](C2)N(C)CC[C@]314 [Hydrocodone] | <1.7% | >0.5 µg/mL | 75.6% | 0.0724 µg/mL (≈ 0.242 µM) |  |  |  |  |  |  |  |  |  |  |  |  |  |  |  | 
4 | CN1CC[C@]23c4c5ccc(O[C@@H]6O[C@H](C(=O)O)[C@@H](O)[C@H](O)[C@H]6O)c4O[C@H]2[C@@H](O)C=C[C@H]3[C@H]1C5 [Morphine-3-glucuronide] | <1.7% | >0.5 µg/mL | <2.7% | >2 µg/mL |  |  |  |  |  |  |  |  |  |  |  |  |  |  |  | 
5 | CN1CC[C@]23c4c5ccc(O)c4O[C@H]2[C@@H](O)C=C[C@H]3[C@H]1C5 [Morphine] | <1.7% |  | <2.7% |  |  |  |  |  |  |  |  |  |  |  |  |  |  |  |  | 
6 | COc1ccc2c3c1O[C@H]1C(=O)CC[C@@]4(O)[C@@H](C2)NCC[C@]314 [Noroxycodone] |  |  |  |  | <1.7% | 99.3% | 100.2% | 99.3% | 97.7% | 96.1% | 92.8% | >0.5 µg/mL | 23.4% | 90.7% | 70.9% | 65.0% | 43.7% | 32.5% | 24.4% | % B/B0 ([1]; standard concentration 5 ng/ml): 100.3%; % B/B0 [2, 7]: 52.0%; IC50 ([2]; Table 2): 0.2335 µg/mL (≈ 0.775 µM)
7 | COc1ccc2c3c1O[C@H]1C(=O)CC[C@@]4(O)[C@@H](C2)N(C)CC[C@]314 [Oxycodone] |  |  |  |  | 100.0% | 88.6% | 82.2% | 36.1% | 22.2% | 14.8% | 10.1% | 0.0087 µg/mL (≈ 0.0276 µM) | 100.0% | 75.7% | 50.1% | 41.9% | 17.8% | 12.2% | 8.3% | 
8 | CN1CC[C@]23c4c5ccc(O)c4O[C@H]2C(=O)CC[C@@]3(O)[C@H]1C5 [Oxymorphone] |  |  |  |  | 26.5% | 93.0% | 90.5% | 57.1% | 39.2% | 29.2% | 24.4% | 0.0328 µg/mL (≈ 0.109 µM) | <2.7% | 103.8% | 97.3% | 95.0% | 90.1% | 84.2% | 76.7% | % B/B0 ([1]; standard concentration 5 ng/ml): 75.1%; % B/B0 [2, 7]: 93.5%; IC50 ([2]; Table 2): >2 µg/mL
9 | COC1=CC=C2[C@H]3Cc4ccc(OC)c5c4[C@@]2(CCN3C)[C@H]1O5 [Thebaine] | 4.3% | 0.2032 µg/mL (≈ 0.653 µM) | <2.7% | >2 µg/mL |  |  |  |  |  |  |  |  |  |  |  |  |  |  |  | 
